A value given as a limit tells only on which side of the number the result lay.

This test in a line: Inhibition of recombinant perforin (unknown origin) mediated lysis of human Jurkat cells pre-incubated for 30 mins with perforin followed by incubation with Jurkat cells at 37 degC for 4 hrs assessed as 51Cr release by gamma counting analysis.
For the compound `O=C1OCc2cc(-c3ccc(-c4ccccc4)s3)ccc21`, the IC50 is over 20 µM. As to `Cc1ccccc1-c1ccc(-c2ccc3c(c2)COC3=O)s1`, the IC50 was over 20 µM. For `Cc1cccc(-c2ccc(-c3ccc4c(c3)COC4=O)s2)c1` the value was over 20 µM; for `Cc1ccc(-c2ccc(-c3ccc4c(c3)COC4=O)s2)cc1`, over 20 µM. For `O=C1OCc2cc(-c3ccc(-c4ccccc4Cl)s3)ccc21` the value was over 20 µM; for `O=C1OCc2cc(-c3ccc(-c4cccc(Cl)c4)s3)ccc21`, over 20 µM; for `O=C1OCc2cc(-c3ccc(-c4ccc(Cl)cc4)s3)ccc21`, over 20 µM.

Turning to `COc1ccccc1-c1ccc(-c2ccc3c(c2)COC3=O)s1`, the IC50 was over 20 µM.

Turning to `COc1cccc(-c2ccc(-c3ccc4c(c3)COC4=O)s2)c1`, the IC50 is over 20 µM. On to `COc1ccc(-c2ccc(-c3ccc4c(c3)COC4=O)s2)cc1`, for which the IC50 was 9.36 µM. Regarding `Nc1cccc(-c2ccc(-c3ccc4c(c3)COC4=O)s2)c1`, the IC50 was determined as 14 µM. The result for `Nc1ccc(-c2ccc(-c3ccc4c(c3)COC4=O)s2)cc1` reads 11.8 µM; that for `O=C1OCc2cc(-c3ccc(-c4cccc(O)c4)s3)ccc21`, 5.89 µM. For `O=C1OCc2cc(-c3ccc(-c4ccc(O)cc4)s3)ccc21`, the IC50 was over 20 µM.

Consider `N#Cc1cccc(-c2ccc(-c3ccc4c(c3)COC4=O)s2)c1`, for which the IC50 amounted to 20 µM. On to `N#Cc1ccc(-c2ccc(-c3ccc4c(c3)COC4=O)s2)cc1`, for which the IC50 was 6.87 µM. For the compound `NC(=O)c1cccc(-c2ccc(-c3ccc4c(c3)COC4=O)s2)c1`, the IC50 is 2.97 µM. For the compound `NC(=O)c1ccc(-c2ccc(-c3ccc4c(c3)COC4=O)s2)cc1`, the IC50 stood at 0.18 µM. The result for `NC(=O)c1ccc(-c2ccc(-c3ccc4c(c3)CNC4=O)s2)cc1` reads 6.04 µM; that for `CN1Cc2cc(-c3ccc(-c4ccc(C(N)=O)cc4)s3)ccc2C1=O`, over 20 µM; that for `CNC(=O)c1ccc(-c2ccc(-c3ccc4c(c3)COC4=O)s2)cc1`, 10.7 µM. As to `CN(C)C(=O)c1ccc(-c2ccc(-c3ccc4c(c3)COC4=O)s2)cc1`, the IC50 was over 20 µM. The result for `CN1CCN(C(=O)c2ccc(-c3ccc(-c4ccc5c(c4)COC5=O)s3)cc2)CC1` reads over 20 µM. For `CN(C)CCCNC(=O)c1ccc(-c2ccc(-c3ccc4c(c3)COC4=O)s2)cc1`, the IC50 was over 20 µM.

On to `CCOC(=O)c1ccc(-c2ccc(-c3ccc4c(c3)COC4=O)s2)cc1`, for which the IC50 was 11 µM. Consider `CCOC(=O)c1ccc(-c2ccc(-c3ccc4c(c3)COC4=O)s2)cc1O`, for which the 50% inhibitory concentration (IC50) was over 20 µM. The result for `Nc1cc(-c2ccc(-c3ccc4c(c3)COC4=O)s2)ccc1C(=O)O` reads 5.84 µM. `NC(=O)c1ccc(-c2ccc(-c3ccc4c(c3)COC4=O)s2)cc1O`: the IC50 is 0.67 µM.

As to `O=C(NCCN1CCOCC1)c1ccc(-c2ccc(-c3ccc4c(c3)COC4=O)s2)cc1O`, the IC50 came out at 12.8 µM. `CN(C)CCNC(=O)c1ccc(-c2ccc(-c3ccc4c(c3)COC4=O)s2)cc1O`: the IC50 was over 20 µM. With `O=C(NCCO)c1ccc(-c2ccc(-c3ccc4c(c3)COC4=O)s2)cc1O`, the IC50 was found to be 3.31 µM.

`CC(O)CNC(=O)c1ccc(-c2ccc(-c3ccc4c(c3)COC4=O)s2)cc1O` (stereo unspecified): the IC50 is over 20 µM.

`NC(=O)CNC(=O)c1ccc(-c2ccc(-c3ccc4c(c3)COC4=O)s2)cc1O`: the IC50 turned out to be 2.65 µM.

For the compound `NC(=O)CCNC(=O)c1ccc(-c2ccc(-c3ccc4c(c3)COC4=O)s2)cc1O`, the IC50 was determined as 7.12 µM. As to `NC(=O)c1ccc(-c2ccc(-c3ccc4c(c3)COC4=O)s2)cc1N`, the IC50 stood at 1.2 µM.

Regarding `Nc1cc(-c2ccc(-c3ccc4c(c3)COC4=O)s2)ccc1C(=O)NCCN1CCOCC1`, the IC50 amounted to 14.7 µM. For the compound `CN(C)CCNC(=O)c1ccc(-c2ccc(-c3ccc4c(c3)COC4=O)s2)cc1N`, the IC50 was over 20 µM. `CSc1ccc(-c2ccc(-c3ccc4c(c3)COC4=O)s2)cc1`: the IC50 is over 20 µM.

As to `O=C1OCc2cc(-c3ccc(-c4ccc(CO)cc4)s3)ccc21`, the IC50 amounted to 0.9 µM.

With `CS(=O)(=O)c1ccc(-c2ccc(-c3ccc4c(c3)COC4=O)s2)cc1`, the IC50 was over 20 µM.

In the case of `NS(=O)(=O)c1cccc(-c2ccc(-c3ccc4c(c3)COC4=O)s2)c1`, the IC50 is 4.85 µM. `CC(C)(C)NS(=O)(=O)c1ccc(-c2ccc(-c3ccc4c(c3)COC4=O)s2)cc1`: the IC50 was found to be 6.09 µM.

With `CS(=O)(=O)Nc1ccc(-c2ccc(-c3ccc4c(c3)COC4=O)s2)cc1`, the IC50 was 1.09 µM. Consider `NC(=O)c1ccc(-c2ccc(-c3ccc4c(c3)COC4=O)s2)cn1`, for which the IC50 stood at 0.92 µM. As to `O=C1OCc2cc(-c3ccc(-c4ccncc4)s3)ccc21`, the IC50 is 4.53 µM.

`O=C1OCc2cc(-c3ccc(-c4ccc5c(c4)COC5=O)s3)ccc21`: the IC50 amounted to 6.24 µM.

The IC50 is the midpoint of a concentration-inhibition curve.

Source of the values: BindingDB's records for doi:10.1016/j.bmcl.2015.12.003 (University of Auckland, 2016).
